The assay concerns the target T1, 11β-HSD1 (Homo sapiens, UniProt P28845).
T1 construct: detecting cortisol generated from cortisterone by human liver microsomes; from tissue; host or cells: human liver microsomes
Description: In vitro inhibition of 11β-HSD1, HTRF detection of cortisol generated from cortisone by human liver microsomes. In kind it is biochemical. As to conditions: 11β-HSD IC50 (nM), 1 hour at 37° C., pH 6.0, NADPH 200 μM, cortisone 80 nM, inhibition relative to carbenoxolone signal. In short, it runs like this: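 Inhibition expressed against the carbenoxolone signal and fitted to IC50 curves. Readout: HTRF competition between microsomal cortisol and XL665-labelled cortisol for Eu-cryptate anti-cortisol antibody (typically 2 h), with emission ratio 665/615 calibrated to cortisol concentration.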

T1 sequence (P28845 whole entry): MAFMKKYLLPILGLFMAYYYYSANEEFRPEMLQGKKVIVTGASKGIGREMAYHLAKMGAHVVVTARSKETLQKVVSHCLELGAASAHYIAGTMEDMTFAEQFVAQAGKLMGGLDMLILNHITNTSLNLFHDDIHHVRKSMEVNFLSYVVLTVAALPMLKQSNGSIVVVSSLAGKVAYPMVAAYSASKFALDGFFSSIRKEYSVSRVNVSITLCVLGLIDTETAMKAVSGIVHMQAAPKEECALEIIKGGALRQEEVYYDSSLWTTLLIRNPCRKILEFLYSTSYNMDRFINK

The compound `CC1(C)[C@H]2Cc3ccccc3[C@]1(C)CCN2C(=O)c1ccc2[nH]ncc2c1` [Example 293, (1H-Indazol-5-yl)-[(2R,6S)-6,11,11-trimethyl-1,2,5,6-tetrahydro-4H-2,6-methano-benzo[d]azocin-3-yl]-methanone] registered an IC50 of 27 nM.

In turn, `CC1(C)[C@H]2Cc3ccccc3[C@]1(C)CCN2C(=O)c1ccc(N)c(Cl)c1` [Example 295, (4-Amino-3-chloro-phenyl)-[(2R,6S)-6,11,11-trimethyl-1,2,5,6-tetrahydro-4H-2,6-methano-benzo[d]azocin-3-yl]-methanone] returned an IC50 of 35 nM.

`CC1(C)[C@H]2Cc3ccccc3[C@]1(C)CCN2C(=O)c1ccc(N)c(F)c1` [Example 296, (4-Amino-3-fluoro-phenyl)-[(2R,6S)-6,11,11-trimethyl-1,2,5,6-tetrahydro-4H-2,6-methano-benzo[d]azocin-3-yl]-methanone] gave an IC50 of 32 nM.

`CC1(C)[C@H]2Cc3ccccc3[C@]1(C)CCN2C(=O)c1cc(F)c(F)c(F)c1` [Example 297, (3,4,5-Trifluoro-phenyl)-[(2R,6S)-6,11,11-trimethyl-1,2,5,6-tetrahydro-4H-2,6-methano-benzo[d]azocin-3-yl]-methanone] had an IC50 of 895 nM.

Compound `CC1(C)[C@H]2Cc3ccccc3[C@]1(C)CCN2C(=O)c1ccc2c(c1)CC(=O)N2` [Example 298, 5-[(2R,6S)-6,11,11-Trimethyl-1,2,5,6-tetrahydro-4H-2,6-methano-benzo[d]azocine-3-carbonyl]-1,3-dihydro indol-2-one] gave an IC50 of 99 nM.

Compound `CC(=O)c1ccc(C(=O)N2CC[C@@]3(C)c4ccccc4C[C@@H]2C3(C)C)cc1` [Example 299] showed an IC50 of 352 nM.

As for `Cc1nc2c3c(ccc2o1)C[C@@H]1[C@@H](C)[C@@]3(C)CCN1C(=O)c1ccc2nc[nH]c2c1` [Example 300, (3H-Benzoimidazol-5-yl)-[(7R,11R,12S)-6,7,8,9,10,11-hexahydro-2,11,12-trimethyl-6,10-methano-oxazolo[4,5-h][3]benzazocin-8-yl]-methanone], the IC50 is 115 nM.

Take `Cc1nc2cc3c(cc2o1)C[C@H]1N(C(=O)c2ccc4nc[nH]c4c2)CC[C@]3(C)C1(C)C` [Example 301, (3H-Benzoimidazol-5-yl)-[(6R,10S)-5,6,7,8,9,10-hexahydro-2,10,12,12-tetramethyl-6,10-methano-oxazolo[4,5-i][3]benzazocin-7-yl]-methanone]: inhibition was half-maximal at 32 nM (IC50).

Take `CC1(C)[C@H]2Cc3cc4oc(C5CC5)nc4cc3[C@]1(C)CCN2C(=O)c1ccc2nc[nH]c2c1` [Example 302, (3H-Benzoimidazol-5-yl)-[(6R,10S)-2-cyclopropyl-5,6,7,8,9,10-hexahydro-10,12,12-trimethyl-6,10-methano-oxazolo[4,5-i][3]benzazocin-7-yl]-methanone]: the IC50 came out at 35 nM.

In the case of `CC1(C)[C@H]2Cc3ccccc3[C@]1(C)CCN2C(=O)c1ccc(O)nc1` [Example 303, (6-Hydroxy-pyridin-3-yl)-[(2R,6S)-6,11,11-trimethyl-1,2,5,6-tetrahydro-4H-2,6-methano-benzo[d]azocin-3-yl)-methanone], the IC50 was 717 nM.

In turn, `CC1(C)[C@H]2Cc3ccccc3[C@]1(C)CCN2C(=O)c1ccc(N)nc1` [Example 304, (6-Amino-pyridin-3-yl)-[(2R,6S)-6,11,11-trimethyl-1,2,5,6-tetrahydro-4H-2,6-methano-benzo[d]azocin-3-yl)-methanone] showed an IC50 of 251 nM.

`Cc1nc2cc3c(cc2o1)[C@]1(C)CCN(C(=O)c2ccc4nc[nH]c4c2)[C@H](C3)[C@H]1C` [Example 305, (3H-Benzoimidazol-5-yl)-[(6R,10R,12S)-5,6,7,8,9,10-hexahydro-2,10,12-trimethyl-6,10-methano-oxazolo[5,4-i][3]benzazocin 7-yl]-methanone] yielded an IC50 of 153 nM.

As for `CC(C)(O)c1ccc(C(=O)N2CC[C@@]3(C)c4ccccc4C[C@@H]2C3(C)C)cc1` [Example 306, [4-(1-Hydroxy-1-methyl-ethyl)-phenyl]-[(2R,6S)-6,11,11-trimethyl-1,2,5,6-tetrahydro-4H-2,6-methano-benzo[d]azocin-3-yl]-methanone], the IC50 came out at 978 nM.

Take `CC(=O)c1cccc(C(=O)N2CC[C@@]3(C)c4ccccc4C[C@@H]2C3(C)C)c1` [Example 307, 1-{3-[(2R,6S)-6,11,11-Trimethyl-1,2,5,6-tetrahydro-4H-2,6-methano-benzo[d]azocine-3-carbonyl]-phenyl}-ethanone]: the IC50 was determined as 979 nM.

The compound `CC1(C)C(=O)Nc2ccc(C(=O)N3CC[C@@]4(C)c5ccccc5C[C@@H]3C4(C)C)cc21` [Example 308, 3,3-Dimethyl-5-[(2R,6S)-6,11,11-trimethyl-1,2,5,6-tetrahydro-4H-2,6-methano-benzo[d]azocine-3-carbonyl]-1,3-dihydro-indol-2-one] yielded an IC50 of 210 nM.

`CC12CCN(C(=O)c3ccc4[nH]cnc4c3)C(Cc3cccc(-c4cccnc4)c31)C2(C)C` (stereo not shown) [Example 309, (1H-Benzoimidazol-5-yl)-(6,11,11-trimethyl-7-pyridin-3-yl-1,2,5,6-tetrahydro-4H-2,6-methano-benzo[d]azocin-3-yl)-methanone]: 184 nM corresponded to half-maximal inhibition (IC50).

`C[C@@H]1[C@H]2Cc3cc4nc(C5CC5)oc4cc3[C@]1(C)CCN2C(=O)c1ccc2nc[nH]c2c1` [Example 311, (3H-Benzoimidazol-5-yl)-[(6R,10R,12S)-2-cyclopropyl-5,6,7,8,9,10-hexahydro-10,12-dimethyl-6,10-methano-oxazolo[5,4-i][3]benzazocin-7-yl]-methanone] yielded an IC50 of 424 nM.

`CC(C)(C)c1nc2cc3c(cc2o1)C[C@H]1N(C(=O)c2ccc4nc[nH]c4c2)CC[C@]3(C)C1(C)C` [Example 312, (3H-Benzoimidazol-5-yl)-[(6R,10S)-2-tert-butyl-5,6,7,8,9,10-hexahydro-10,12,12-trimethyl-6,10-methano-oxazolo[4,5-i][3]benzazocin-7-yl]-methanone] gave an IC50 of 103 nM.

For `Cc1cnc(-c2nc3cc4c(cc3o2)C[C@H]2N(C(=O)c3ccc5nc[nH]c5c3)CC[C@]4(C)C2(C)C)cn1` [Example 313, (3H-Benzoimidazol-5-yl)-[(6R,10S)-5,6,7,8,9,10-hexahydro-10,12,12-trimethyl-2-(5-methyl-pyrazin-2-yl)-6,10-methano-oxazolo[4,5-i][3]benzazocin-7-yl]-methanone], inhibition was half-maximal at 61 nM (IC50).

With `CC(O)c1cccc(C(=O)N2CC[C@@]3(C)c4ccccc4C[C@@H]2C3(C)C)c1` (stereo partly drawn) [Example 314, [3-(1-Hydroxy-ethyl)-phenyl]-[(2R,6S)-6,11,11-trimethyl-1,2,5,6-tetrahydro-4H-2,6-methano-benzo[d]azocin-3-yl]-methanone], the midpoint of inhibition, the IC50, lay at 162 nM.

In turn, `Cc1ncc(-c2ccc3c(c2)[C@]2(C)CCN(C(=O)c4ccc5nc[nH]c5c4)[C@H](C3)[C@H]2C)cn1` [Example 315, (3H-Benzoimidazol-5-yl)-[(2R,6R,11S)-6,11-dimethyl-8-(2-methyl-pyrimidin-5-yl)-1,2,5,6-tetrahydro-4H-2,6-methano-benzo[d]azocin-3-yl]-methanone] came in with an IC50 of 61 nM.

Regarding `CC12CCN(C(=O)c3ccc4nc[nH]c4c3)C(Cc3cccc(C#N)c31)C2(C)C` (stereo not shown) [Example 316, 3-(1H-Benzoimidazole-5-carbonyl)-6,11,11-trimethyl-1,2,3,4,5,6-hexahydro-2,6-methano-benzo[d]azocine-7-carbonitrile], it took 32 nM to reach half-maximal inhibition (IC50).

One may read the IC50 as the concentration that inhibits the measured activity by half.

For the origin of these results see patent publication US8859580B2 (Boehringer Ingelheim International GmbH, priority 2007, dated 2014).
